PubChem BioAssay AID1508591

Conditions: rat; liver microsomes; pH 7.4; 15.0 min; 1.0 µM

half-life	SMILES
> 30 min	CCNC(=O)Nc1ncc(-c2cc(-c3c(C)cc(OC)cc3C)nc(-c3cnccn3)n2)s1
> 30 min	CC(=O)Nc1cccc(-c2nc(-c3c(C)noc3C)cc3c2cc(-c2ccccc2)n3C)c1
2.01 min	Cc1cccc(S(=O)(=O)c2cn(Cc3ccccc3)c3cc(N4CCCC(C)C4)c(F)cc3c2=O)c1 (configuration not stated)
> 30 min	Cc1ccc(S(=O)(=O)Nc2cc(C(=O)Nc3nc(-c4ccccc4)cs3)ccn2)cc1
26 min	Fc1ccc(Nc2nc(-c3ccnc(N4CCCCC4)c3)nc3ccccc23)cc1F
> 30 min	C[C@H]1CN(C(=O)Nc2ccc(F)cc2F)C[C@@H]1c1nc(-c2ccccc2)no1
8.12 min	CCN1C(=O)c2ccccc2S(=O)c2ccc(C(=O)NCc3ccccc3)cc21 (configuration not stated)
2.4 min	Cc1ccc(S(=O)(=O)NCCC(=O)Nc2nc(-c3ccccc3)cs2)cc1
> 30 min	CC(C)c1cc(C(=O)N2CC[C@@H](NC(=O)C3CC3)C2)n[nH]1
> 30 min	COc1ccc(C(=O)N2CCCC(c3nn(-c4ccc(OC)cc4)c(=O)[nH]3)C2)cc1 (configuration not stated)
14.2 min	COc1ccc2oc(NC3=NC(c4[nH]ncc4Cl)C4=C(CCCC4=O)N3)nc2c1 (configuration not stated)
> 30 min	Cc1ccnc(C)c1C(=O)Nc1cccc([S+](=O)([O-])N(C)C)c1
4.46 min	Oc1ccc(CNc2ccccc2Br)c2cccnc12
1.12 min	Cc1ccc(NC(=O)C(Cc2ccccc2)NS(=O)(=O)c2cccs2)cc1Cl (configuration not stated)
> 30 min	CCS(=O)(=O)c1cccc(C(=O)Nc2ccc(-c3nc4ccccc4s3)c(O)c2)c1
7.58 min	CCc1nnc(NC(=O)c2nc(S(=O)(=O)Cc3ccc(C)cc3)ncc2Cl)s1
1.6 min	Cc1cccc2nc(NC3=NC(c4[nH]ncc4Cl)C4=C(CCCC4=O)N3)oc12 (configuration not stated)
2.4 min	O=[S+]([O-])(Nc1cccc2cccnc12)c1ccc(NCc2ccc(Cl)cc2O)cc1
21.8 min	O=C1Nc2cc(Cl)ccc2Nc2cscc21
3.31 min	CC1=Nc2cc(C(=O)NC3CCCC3)ccc2Sc2ccc(C)cc21
21 min	Cc1cnc(-c2ccccc2C(F)F)nc1NCc1ccc(-n2ccnn2)cc1
3.38 min	Cc1noc(C)c1Cc1ccc(C(=O)N2CCc3c(nc4cc(-c5ccccc5)[nH]n4c3=O)C2)o1
2.7 min	Cc1ccc2oc(NC3=NC4(CCCC4)C4=C(CCCC4=O)N3)nc2c1

half-life	SMILES
20.1 min	CCOC(=O)c1ccc(N2C(=O)c3n[nH]c(-c4cccs4)c3C2c2ccc(Cl)cc2Cl)cc1 (configuration not stated)
4.1 min	CC(=O)Nc1ccc(CN2CCc3nc(C(C)C)nc(-c4ccc(Cl)cc4)c3CC2)cc1
> 30 min	CCOc1ccc(-c2cn3c(n2)sc2cc(C(=O)NCCCN(CC)CC)ccc23)cc1
3.98 min	NC(=O)C1CCN(c2nc(-c3cccs3)cs2)CC1
> 30 min	CC(=O)c1c(C)c2cnc(Nc3ccc(N4CCNCC4)cn3)nc2n(C2CCCC2)c1=O
> 30 min	N#C/C(=C\c1ccc(-c2ccc(C(=O)O)cc2)o1)c1nc2ccccc2[nH]1
> 30 min	CC(=O)Nc1ccc(S(=O)(=O)Nc2nccs2)cc1
4.5 min	COc1ccc(NS(=O)(=O)c2ccc(C)cc2)c(C(=O)Nc2nc(-c3ccccc3)cs2)c1
15 min	COc1ccccc1-c1csc(N2CCC(C(N)=O)CC2)n1
9.74 min	CCOc1cccc(C(=O)Nc2nc3c(s2)CC(C(C)(C)C)CC3)c1 (configuration not stated)
> 30 min	O=S(=O)(Nc1nccs1)c1ccc(NCc2cccc(O)c2)cc1
5.28 min	CCCc1nnc(NC(=O)c2nc(S(=O)(=O)Cc3ccc(C)cc3)ncc2Cl)s1
13 min	Cc1cc(NS(=O)(=O)c2ccc(NC(=O)Cc3ccc(Cl)c(Cl)c3)cc2)n(C)n1
> 30 min	O=[S+]([O-])(Nc1ccc(N2CCNCC2)cc1)c1ccc(NCc2ccc(Cl)cc2O)cc1
3.39 min	COc1cccc2c1CCCC2CCCN1CCN(C2CCCCC2)CC1 (configuration not stated)
13.2 min	CCC[C@@H]1CN(C(=O)c2ccc(-c3ccc(C)o3)cc2)C[C@H]1NC(C)=O
> 30 min	O=C(Nc1cn[nH]c1-c1nc2ccc(CN3CCOCC3)cc2[nH]1)NC1CC1
3.3 min	CCCc1ccc(-c2csc(NC(=O)c3ccncc3NS(=O)(=O)c3ccc(C)cc3)n2)cc1
8.6 min	c1ccc(Nc2cc(-c3ccoc3)ncn2)cc1
10 min	COc1ccc(CN2CCNc3cc(Nc4ccccc4)ncc3C2)cn1
6.56 min	CCn1c(-c2nonc2N)nc2cnc(Oc3cccc(NC(=O)c4ccc(OCCN5CCOCC5)cc4)c3)cc21
9.7 min	COc1ccc(Nc2nc(-c3ccncc3)nc3ccccc23)cc1F

SMILES	half-life
CCOC(=O)c1ccc(NC(=O)c2sc3nc4c(cc3c2N)N2CCC4CC2)cc1	1.21 min
Nc1c(C(=O)Nc2ccc(Cl)c(C(F)(F)F)c2)sc2nc3c(cc12)N1CCC3CC1	22.1 min
